# Structures can show the parent of a compound that is named as a salt. Where two headings read alike, the source gives them in different places.
# How the values were obtained:
# ETA = molecular target: T1, ETA (Oryctolagus cuniculus, UniProt A5A8K3)
# T1 sequence (A5A8K3 21-427): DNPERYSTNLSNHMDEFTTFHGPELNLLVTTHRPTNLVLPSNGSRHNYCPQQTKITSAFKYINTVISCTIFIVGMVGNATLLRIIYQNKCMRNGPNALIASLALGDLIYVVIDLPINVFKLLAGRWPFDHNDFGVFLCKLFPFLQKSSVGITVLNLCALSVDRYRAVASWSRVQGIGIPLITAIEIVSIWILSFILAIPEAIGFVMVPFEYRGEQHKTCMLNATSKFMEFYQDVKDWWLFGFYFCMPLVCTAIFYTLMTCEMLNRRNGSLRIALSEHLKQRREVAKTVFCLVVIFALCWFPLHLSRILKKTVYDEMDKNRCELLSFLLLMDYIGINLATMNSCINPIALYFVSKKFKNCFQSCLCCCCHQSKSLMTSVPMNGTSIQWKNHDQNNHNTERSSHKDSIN
# Procedure: The cells used were rabbit renal artery vascular smooth muscle cells grown in a 48-well dish (1 cm^2) (confluent cells).
# The growth media was Dulbecco's Modified Eagles/Ham's F12 which contained 10% fetal bovine serum and antibiotics (penicillin/streptomycin/fungizone).
# Second, remove the assay buffers, place the dish on ice, and add 150 μL of cold assay buffer described above to each well. […] Next, place dish in a 37° C., water bath for about 2 hours and gently agitate the dish every 15 minutes. Discard the radioactive incubation mixture in the sink and wash wells 3 times with 1 mL of cold phosphate buffered saline.
# human ETB receptor = molecular target: T2, human ETB receptor (Homo sapiens, UniProt P24530); test: ERBA-B: [125I]-ET-1 binding, recombinant human ETB receptor expressed in CHO-K1 cells; conditions: human cloned ETB receptor, read-out: ERBA-B IC50, human cloned receptor data
# T2 construct: expressed in transfected cells; host or cells: CHO-K1 cells, pRc-CMW (so in the source) expression vector, electroporation; membranes used
# T2 sequence (P24530 27-442): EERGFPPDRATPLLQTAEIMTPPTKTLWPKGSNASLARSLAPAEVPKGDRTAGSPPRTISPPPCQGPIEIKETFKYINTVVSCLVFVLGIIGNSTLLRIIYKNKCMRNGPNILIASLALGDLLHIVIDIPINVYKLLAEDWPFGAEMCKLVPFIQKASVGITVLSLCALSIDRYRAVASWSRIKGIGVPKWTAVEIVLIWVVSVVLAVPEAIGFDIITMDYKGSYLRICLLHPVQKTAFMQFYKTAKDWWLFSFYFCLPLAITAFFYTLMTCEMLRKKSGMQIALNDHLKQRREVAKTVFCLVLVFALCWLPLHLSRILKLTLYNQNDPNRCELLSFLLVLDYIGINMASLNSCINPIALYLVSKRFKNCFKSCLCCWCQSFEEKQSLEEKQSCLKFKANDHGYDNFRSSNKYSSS
# Procedure: Count filters for radioactivity in gamma counter.
# The above process has also been modified by using human recombinant CHO-K1 cells.
# The tissue used for human ETB was recombinant human ETB receptor expressed in CHO-K1 cells (chinese hamster ovary cells). The gene for human ETB receptor was cloned and inserted into the pRc-CMW expression vector, then transfected into CHO-K1 cells by electroporation. For binding assays, membranes (0.7 mg protein) of CHO-K1 cells expressing recombinant human ETB receptor were used.
# ^d Human cloned receptor data
# [1] = ERBA-A IC50, [125I]-ET-1, rabbit renal artery vascular smooth muscle cells
Structure (SMILES),IC50 (ETA; [1]) [nM],IC50 (human ETB receptor) [nM],"IC50 (ETA; read-out: ERBA-A IC50, [125I]-ET-1, rabbit renal artery vascular smooth muscle cells) [nM]"
"COc1ccc(CC2=C(c3ccc(N(C)C)cc3)C(=O)OC2(O)c2ccc(Cl)cc2)cc1OC (racemic) [Example 56, 2(5H)-Furanone, 5-(4-chlorophenyl)-4-[(3,4-dimethoxyphenyl)methyl]-3-[4-(dimethylamino)phenyl]-5-hydroxy-, (±)-]",14000,–,–
"CC(C)c1ccc(CC2=C(c3ccc(N(C)C)cc3)C(=O)OC2(O)c2ccc(Cl)cc2)cc1 (racemic) [Example 57, 2(5H)-Furanone, 5-(4-chlorophenyl)-3-[(4-(dimethylamino)phenyl]-5-hydroxy-4-[[4-(1-methylethyl)phenyl]methyl]-, (±)-]",11000,–,–
"COc1ccc(C2(O)OC(=O)C(c3ccc4c(c3)OCO4)=C2Cc2ccc(C(=O)NCCN3CCOCC3)cc2)cc1 (racemic) [Example 350, Benzamide, 4-[4-(1,3-benzodioxol-5-yl)-2,5-dihydro-2-hydroxy-2-(4-methoxyphenyl)-5-oxo-3-furanyl]methyl]-N-[2-(4-morpholinyl)ethyl]-, monohydrochloride, (±)-]",–,> 2500,290
"CCC1=C(c2ccc3c(c2)OCO3)C(=O)OC1(O)c1ccc(OC)cc1 (stereo not shown) [Example 91, 3-Benzo[1,3]dioxol-5-yl-4-ethyl-5-hydroxy-5-(4-methoxyphenyl)-5H-furan-2-on]",530,15000,–
"COc1ccc(CC2=C(c3ccc(Cl)c(Cl)c3)C(=O)OC2(O)c2ccc(OC)cc2)cc1 (stereo not shown) [Example 117, 3-(3,4-Dichlorophenyl)-5-hydroxy-4-(4-methoxybenzyl)-5-(4-methoxyphenyl)-5H -furan-2-one]",310,2700,–
"COc1ccc(C2(O)OC(=O)C(c3ccc(Cl)c(Cl)c3)=C2Cc2ccccc2)cc1 (stereo not shown) [Example 120, 4-Benzyl-3-(3,4-dichlorophenyl)-5-hydroxy-5-(4-methoxyphenyl)-5H-furan-2-one]",850,–,–
"COc1ccc(C2(O)OC(=O)C(c3ccc(F)c(F)c3)=C2Cc2ccccc2)cc1 (stereo not shown) [Example 143, 4-Benzyl-3-(3,4-difluorophenyl)-5-hydroxy-5-(4-methoxyphenyl)-5H-furan-2-one]",1900,–,–
"COc1ccc(C2(O)OC(=O)C(c3ccc(F)c(F)c3)=C2Cc2ccc(N(C)C)cc2)cc1 (stereo not shown) [Example 145, 3-(3,4-Difluorophenyl)-4-(4-dimethylaminobenzyl)-5-hydroxy-5-(4-methoxyphenyl)-5H-furan-2-one]",1700,–,–
"COc1ccc(C2(O)OC(=O)C(c3cc(Cl)cc(Cl)c3)=C2Cc2ccccc2)cc1 (stereo not shown) [Example 149, 4-Benzyl-3-(3,5-dichloro-phenyl)-5-hydroxy-5-(4-methoxy-phenyl)-5H-furan-2-one]",600,–,–
"COC(=O)c1ccc(C2(O)OC(=O)C(c3ccc4c(c3)OCO4)=C2Cc2ccccc2)cc1 (stereo not shown) [Example 198, 4-(4-Benzo[1,3]dioxol-5-yl-3-benzyl-2-hydroxy-5-oxo-2,5-dihydrofuran-2-yl)b enzoic acid methyl ester]",410,–,–
"Cc1ccc(C2(O)OC(=O)C(c3ccc4c(c3)OCO4)=C2Cc2ccccc2)cc1C (stereo not shown) [Example 212, 3-Benzo[1,3]dioxol-5-yl-4-benzyl-5-(3,4-dimethylphenyl)-5-hydroxy-5H-furan-2-one]",1300,–,–
"COc1ccccc1C1(O)OC(=O)C(c2ccc3c(c2)OCO3)=C1Cc1ccccc1 (stereo not shown) [Example 249, 3-Benzo[1,3]dioxol-5-yl-4-benzyl-5-hydroxy-5-(2-methoxyphenyl)-5H-furan-2-one]",500,–,–
"CCc1ccc(C2(O)OC(=O)C(c3ccc4c(c3)OCO4)=C2Cc2ccccc2)cc1 (stereo not shown) [Example 266, 3-Benzo[1,3]dioxol-5-yl-4-benzyl-5-(4-ethylphenyl)-5-hydroxy-5H-furan-2-one]",600,–,–
"CSc1ccc(C2(O)OC(=O)C(c3ccc4c(c3)OCO4)=C2Cc2ccccc2)cc1 (stereo not shown) [Example 271, 3-Benzo[1,3]dioxol-5-yl-4-benzyl-5-hydroxy-5-(4-methylsulfanylphenyl)-5H-fu ran-2-one]",390,–,–
"COc1ccc(C(=O)/C(Cc2cc(OC)c(OC)c(OC)c2)=C(\C(=O)O)c2cc(OC)c3c(c2)OCO3)cc1C [Example 369, Sodium 2-(7-Methoxy-benzo[1,3]dioxol-5-yl)-3-(4-methoxy-3-methyl-benzoyl)-4-(3,4,5-trimethoxyphenyl)-but-2-enoate]",–,328,–

# Further lines, results first:
IC50 (ETA; [1]) [nM],IC50 (human ETB receptor) [nM],"IC50 (ETA; read-out: ERBA-A IC50, [125I]-ET-1, rabbit renal artery vascular smooth muscle cells) [nM]",Structure (SMILES)
50,4000,–,"COc1ccc(C2(O)OC(=O)C(c3ccc4c(c3)OCO4)=C2Cc2cncc3ccccc23)cc1 (racemic) [Example 164, monohydrochloride]"
40,25000,–,"COc1ccc(C2(O)OC(=O)C(c3ccc4c(c3)OCO4)=C2Cc2cccnc2)cc1 (racemic) [Example 165, 2(5H)-Furanone, 3-(1,3-benzodioxol-5-yl)-5-hydroxy-5-(4-methoxyphenyl)-4-(3-pyridinylmethyl)-, (±)-, monohydrochloride]"
40,> 2500,–,"COc1ccc(C2(O)OC(=O)C(c3cc(OC)cc(OC)c3)=C2Cc2cccnc2)cc1 (racemic) [Example 166, 2(5H)-Furanone, 3-(3,5-dimethoxyphenyl)-5-hydroxy-5-(4-methoxyphenyl)-4-(3-pyridinylmethyl)-, (±)-, monohydrochloride]"
12,–,–,"COc1ccc(C2(O)OC(=O)C(c3ccc4c(c3)OCO4)=C2Cc2ccccc2)cc1C (racemic) [Example 290, 2(5H)-Furanone, 3-(1,3-benzodioxol-5-yl)-5hydroxy-5-(4-methoxy-3-methylphenyl)-4-(phenylmethyl)-, (±)-]"
310,–,–,"COc1ccc(C2(O)OC(=O)C(c3ccc4c(c3)OCO4)=C2Cc2ccc(OCc3ccccc3)cc2)cc1 (stereo not shown) [Example 86, 3-Benzo[1,3]dioxol-5-yl-4-(4-benzyloxybenzyl)-5-hydroxy-5-(4-methoxyphenyl) -5H-furan-2-one]"
63,1500,–,"COc1ccc(C2(O)OC(=O)C(c3ccc4c(c3)OCO4)=C2Cc2ccc3c(c2)OCO3)cc1 (stereo not shown) [Example 87, 3-Benzo[1,3]dioxol-5-yl-4-benzo[1,3]dioxol-5-ylmethyl-5-hydroxy-5-(4-methoxyphenyl)-5H-furan-2-one]"
250,–,–,"COc1ccc(C2(O)OC(=O)C(c3ccc4c(c3)OCO4)=C2Cc2ccc(C(F)(F)F)cc2)cc1 (stereo not shown) [Example 88, 3-Benzo[1,3]dioxol-5-yl-5-hydroxy-5-(4-methoxyphenyl)-4-(4-trifluoromethylbenzyl)-5H-furan-2-one]"
300,25000,–,"COc1ccc(C2(O)OC(=O)C(c3ccc(OC)cc3OC)=C2Cc2ccccc2)cc1 (stereo not shown) [Example 113, 4-Benzyl-3-(2,4-dimethoxyphenyl)-5-hydroxy-5-(4-mehoxyphenyl)-5H-furan-2-one]"
74,–,–,"COc1ccc(C2(O)OC(=O)C(c3ccc(Cl)c(Cl)c3)=C2Cc2ccc(C(C)C)cc2)cc1 (stereo not shown) [Example 121, 3-(3,4-Dichlorophenyl)-5-hydroxy-4-(4-isopropylbenzyl)-5-(4-methoxyphenyl)-5H-furan-2-one]"
290,–,–,"COc1ccc(C2(O)OC(=O)C(c3ccc(F)c(F)c3)=C2Cc2ccc(C(C)C)cc2)cc1 (stereo not shown) [Example 144, 3-(3,4-Difluorophenyl)-5-hydroxy-4-(4-isopropylbenzyl)-5-(4-methoxyphenyl)-5H-furan-2-one]"
13,–,–,"COc1ccc(C2(O)OC(=O)C(c3ccc4c(c3)OCO4)=C2Cc2cccc3ccccc23)cc1 (stereo not shown) [Example 250, 3-Benzo[1,3]dioxol-5-yl-5-hydroxy-5-(4-methoxyphenyl)-4-naphthalen-1-ylmethyl-5H-furan-2-one]"
12,–,–,"COc1ccc(C2(O)OC(=O)C(c3cc(OC)cc(OC)c3)=C2CC2CCCCC2)cc1 (stereo not shown) [Example 275, 2(5H)-Furanone, 4-(cyclohexylmethyl)-3-(3,5-dimethoxyphenyl)-5-hydroxy-5-(4-methoxyphenyl)]"
83,–,–,"COc1ccc(C2(O)OC(=O)C(c3ccc4c(c3)OCO4)=C2Cc2cccc(C(=O)O)c2)cc1 (stereo not shown) [Example 292, 3-[4-Benzo[1,3]dioxol-5-yl-2-hydroxy-2-(4-methoxyphenyl)-5-oxo-2,5-dihydro-furan-3-ylmethyl]-benzoic acid]"
33,–,–,"COc1ccc(C2(O)OC(=O)C(c3ccc4c(c3)OCO4)=C2Cc2ccc(OC)c(OC)c2OC)cc1 (stereo not shown) [Example 305, 3-Benzo[1,3]dioxol-5-yl-5-hydroxy-5-(4-methoxy-phenyl)-4-(2,3,4-trimethoxy-benzyl)-5H-furan-2-one]"

# From patent publication US5691373A, “Nonpeptide endothelin antagonists I” (Warner-Lambert Company, priority 1995, dated 1997)
